Where two headings read alike, the source gives them in different places.
Key:
3T3-L1 cells = experiment: Induction of adipocyte differentiation (amount of triglyceride biosynthesis); type: cell-based; conditions: Mus musculus
Method: Induction of adipocyte differentiation was carried out by partially modifying the above-mentioned method of Rubin C. S. et al. In addition, as a test compound, a compound prepared in Examples mentioned above or a commercially available compound was used. 3T3-L1 cells (ATCC CCL-92.1) were suspended in a 10% fetal bovine serum (manufactured by Bio Whittaker)-containing Dulbecco's modified Eagle's medium (manufactured by Sigma, D6046) containing 200 μM ascorbic acid so as to have a density of 4×10^3 cells/mL, and the suspension was put in each well of a 12-well microtiter plate in an amount of 2 ml per well. The cells were cultured at 37° C. for 7 days in the presence of 5% carbon dioxide gas. On the seventh day, the medium was exchanged with a 10% fetal bovine serum (manufactured by Bio Whittaker)-containing Dulbecco's modified Eagle's medium containing 200 μM ascorbic acid and 0.25 μM dexamethasone, and a test compound dissolved in dimethyl sulfoxide in a concentration shown in each of Tables 16 to 19 was added to each well. Here, there were set a group with addition of 4 μL of an aqueous solution containing 5 mg/mL insulin (manufactured by TAKARA BIO INC.) as a positive control, and a group with addition of dimethyl sulfoxide as a negative control. After 45 hours, the medium was exchanged with a 10% fetal bovine serum-containing Dulbecco's modified Eagle's medium containing 200 μM ascorbic acid. A test compound, 2 μL of an aqueous solution containing 5 mg/mL insulin as a positive control, or dimethyl sulfoxide as a negative control was put to each well in the same concentration. The cells were cultured for additional 7 days. In addition, the medium was exchanged on after 2 days and after 5 days, and at that time, a test compound, 2 μL of an aqueous solution containing 5 mg/mL insulin as a positive control, or dimethyl sulfoxide as a negative control was put to each well in the same concentration.
The amount of triglyceride in the adipocytes was determined as an index of induction of differentiation into mature adipocytes, and also, as the evaluation of insulin-mimetic action.
After the termination of the culture, the medium was removed, and the cells were washed twice with a phosphate buffered saline. One milliliter of a solvent of hexane:isopropanol=3:2 was added to the cells. The mixture was allowed to stand at room temperature for 30 minutes, and thereafter the supernatant was collected. The procedures were repeated again, and 2 mL of the supernatant was concentrated to dryness. The precipitate was dissolved in 100 μL of isopropanol, and the amount of triglyceride contained in 10 μL of the solution was determined using a triglyceride E-test (manufactured by Wako Pure Chemical Industries, Ltd., code 432-40201). In addition, all the determinations were carried out twice. The action for induction of differentiation was calculated by the following calculation formula, and shown by four ranks of +++, ++, + and +/−. • S: Amount of triglyceride in the presence of a test compound; • N: Amount of triglyceride in the negative control; and • P: Amount of triglyceride in the positive control; X=(S−N)/(P−N) (Judgment of Action for Induction of Differentiation)

[1] = system: mature adipocytes (3T3-L1 cells); experiment: Enhancing action on glucose uptake (2-deoxyglucose) into mature adipocytes; type: cell-based; conditions: Mus musculus, 3T3-L1, X=(S−N)/(P−N) of 2-deoxyglucose uptake, P=insulin 1 μg/mL, read-out: Enhancing Action on Glucose Uptake
Method: The induction of differentation into nature adipocytes was carried out by partially modifying the above-mentioned method of Rubin C. S. et al. 3T3-L1 cells (ATCC CCL-92.1) were suspended in a 10% fetal bovine serum (manufactured by Bio Whittaker)-containing Dulbecco's modified Eagle's medium (manufactured by Sigma, D6046) containing 200 μM ascorbic acid so as to have a density of 4×10^3 cells/mL, and the suspension was put in each well of a collagen type I-coated 12-well plate (Iwaki Glass Co., Ltd., code 4815-010) in an amount of 2 mL per well. The cells were cultured at 37° C. for 7 days in the presence of 5% carbon dioxide gas. On the seventh day, the medium was exchanged with 2 mL of a 10% fetal bovine serum (manufactured by Bio Whittaker)-containing Dulbecco's modified Eagle's medium containing 200 μM ascorbic acid, 0.25 μM dexamethasone, 10 μg/mL insulin (manufactured by TAKARA BIO INC.) and 0.5 mM 3-isobutyl-1-methylxanthine (manufactured by nacalai tesque, 19624-86). After 45 hours, the medium was exchanged with 2 mL of a 10% fetal bovine serum-containing Dulbecco's modified Eagle's medium containing 200 μM ascorbic acid and 5 μg/mL insulin. The medium was exchanged on after 2 days and 5 days, and the cells were cultured for 7 days, to give mature adipocytes.
As the evaluation of the enhancing action on glucose uptake, and also as the evaluation of the insulin-mimetic action, the amount of 2-deoxyglucose uptake into mature adipocytes during the stimulation of the test compound in the adipocytes was determined. As a test compound, a compound prepared in the Examples mentioned above or a commercially available compound was used.
After the termination of the culture, the medium was removed, and the cells were washed twice with a 0.1% (w/v) bovine serum albumin (manufactured by Sigma, A8022)-containing Dulbecco's modified Eagle's medium. Thereafter, 1 mL of the same medium containing a test compound in a concentration shown in each of Tables 20 to 23 was put to each well. The cells were cultured overnight at 37° C. in the presence of 5% carbon dioxide gas. Here, a group without containing the test compound was set as a negative control. After the overnight culture, the cells were washed twice with a HEPES buffer (140 mM NaCl, 5 mM KCl, 2.5 mM MgSO4, 1 mM CaCl2, 20 mM HEPES-Na (pH 7.4)). The amount 0.9 mL of the buffer containing a test compound in the same concentration was added to each well. The cells were cultured at 37° C. for 75 minutes. During the culture, as a positive control, there was set a group with addition of insulin to the well without addition of a test compound at a point 45 minutes passed so as to have a final concentration of 1 μg/mL. Thereafter, 100 μL of a HEPES buffer containing 0.5 μCi/mL 2-deoxy-[1,2-^3H(N)]-glucose (manufactured by PerkinElmer Life Sciences Inc., NET549A) and 1 mM 2-deoxyglucose (manufactured by nacalai tesque, 10722-11) was added thereto. The cells were cultured at 37° C. for additional 10 minutes. After the termination of the culture, the supernatant was removed, and the cells were washed three times with a phosphate buffer cooled to 4° C. Thereafter, 0.5 mL of a 1% Nonidet P-40-containing phosphate buffer was added to lyse the cells, whereby 2-deoxy-[1,2-^3H(N)]-glucose subjected to uptake into the cells was eluted. The radioactivity was determined with a liquid scintillation counter LS6500 (manufactured by Beckmann) using 25 μL of the supernatant with Ultima Gold (manufactured by PerkinElmer Life Sciences Inc., 6013329) as a scintillation cocktail. The enhancing action on glucose uptake was calculated by the following calculation formula, and shown by four ranks of +++, ++, + and +/−. • S: Amount of 2-deoxyglucose uptake in the presence of a test compound; • N: Amount of 2-deoxyglucose uptake in the negative control; and • P: Amount of 2-deoxyglucose uptake in the positive control; X=(S−N)/(P−N) (Judgment of Enhancing Action for 2-Deoxyglucose Uptake)

[2] = 3T3-L1, X=(S−N)/(P−N) of amount of triglyceride, P=insulin positive control, read-out: Action for Induction of Differentiation
[3] = 3T3-L1, 13 μM, X=(S−N)/(P−N) of amount of triglyceride, P=insulin positive control, read-out: Action for Induction of Differentiation
[4] = 3T3-L1, read-out: Action for Induction of Differentiation

| Structure (SMILES) | activation at 10 µM [1] [%] | activation at 30 µM [1] [%] | activation at 3 µM (3T3-L1 cells; [2]) [%] | activation at 10 µM (3T3-L1 cells; [2]) [%] | other results |
| --- | --- | --- | --- | --- | --- |
| COc1cc(O)c(C(=O)/C=C/c2ccc(O)cc2)cc1CC=C(C)C [Bavachalcone, 4,2′-Dihydroxy-4′-methoxy-5′-prenylchalcone] | 30 to 60 | > 100 |  |  | activation at 4 µM (3T3-L1 cells; [2]): 15 to 30%; activation at 13 µM (3T3-L1 cells; [3]): 30 to 60% |
| COc1ccc(C(=O)/C=C/c2ccc(O)cc2)c(O)c1 [Compound (C020), 4,2′-dihydroxy-4′-methoxychalcone] | 30 to 60 | 60 to 100 |  |  | activation at 4 µM (3T3-L1 cells; [2]): 30 to 60%; activation at 13 µM (3T3-L1 cells; [3]): 60 to 100% |
| COc1ccc(C(C)=O)c(O)c1CC=C(C)C [Compound (C026), 2′-hydroxy-3′-prenyl-4′-methoxyacetophenone] | 30 to 60 | 30 to 60 |  |  | activation at 1.3 µM (3T3-L1 cells; 3T3-L1, 1.3 μM, X=(S−N)/(P−N) of amount of triglyceride, P=insulin positive control, read-out: Action for Induction of Differentiation): 30 to 60%; activation at 4 µM (3T3-L1 cells; [2]): 60 to 100%; activation at 13 µM (3T3-L1 cells; [3]): 60 to 100%; activation at 3 µM [1]: 15 to 30% |
| COc1cc(O)c(C(C)=O)cc1CC=C(C)C [Compound (C027), 2′-hydroxy-4′-methoxy-5′-prenylacetophenone] | 15 to 30 | 30 to 60 |  |  | activation at 4 µM (3T3-L1 cells; [2]): 15 to 30%; activation at 13 µM (3T3-L1 cells; [3]): 30 to 60% |
| COc1ccc(C(=O)/C=C/c2ccc(OC(C)=O)cc2)c(OC(C)=O)c1CC=C(C)C [Compound (C032), 4,2′-diacetoxy-3′-prenyl-4′-methoxychalcone] | > 100 | > 100 | > 100 | > 100 | activation at 1 µM (3T3-L1 cells; 3T3-L1, 1 μM, X=(S−N)/(P−N) of amount of triglyceride, P=insulin positive control, read-out: Action for Induction of Differentiation): 60 to 100%; activation at 3 µM [1]: > 100% |
| COc1ccc(C(=O)CCc2ccc(O)cc2)c(O)c1CCC(C)C [Compound (C033), 1-(2-hydroxy-3-(3-methylbutyl)-4-methoxyphenyl)-3-(4-hydroxyphenyl)-propan-1-one] | 30 to 60 | 60 to 100 | > 100 | > 100 | activation at 3 µM [1]: 30 to 60% |
| COc1ccc(/C=C/C(=O)c2ccc(OC)c(CC=C(C)C)c2O)cc1 [Compound (C035), 4,4′-dimethoxy-2′-hydroxy-3′-prenylchalcone] | 30 to 60 | 60 to 100 | 60 to 100 | > 100 |  |
| COc1ccc(C(C)=O)c(O)c1C/C=C(\C)CCC=C(C)C [Compound (C038), 2′-hydroxy-3′-geranyl-4′-methoxyacetophenone] | 30 to 60 | 60 to 100 | 30 to 60 | > 100 |  |
| COc1ccc(C(C)=O)c(O)c1CCC(C)C [Compound (C041), 2′-hydroxy-3′-(3-methylbutyl)-4′-methoxyacetophenone] |  | > 100 | 30 to 60 | > 100 |  |
| CC(=O)c1ccc(OC2CCCCO2)c(CC=C(C)C)c1O (stereo not shown) [Compound (C044), 2′-hydroxy-3′-prenyl-4′-tetrahydropyranyloxyacetophenone] | 30 to 60 | > 100 | 30 to 60 | 60 to 100 |  |
| CC(C)=CCCC1(C)Oc2c(C(=O)/C=C/c3ccc(O)cc3)ccc(O)c2CC1O (stereo not shown) [TB2, 1-(3,4-dihydro-3,5-dihydroxy-2-(3-isohexenyl)-2-methyl-2H-benzopyran-8-yl)-3-(4-hydroxyphenyl)-2-propen-1-one] |  |  | > 100 | > 100 |  |
| COc1ccc(C(=O)/C=C/c2ccc(O)cc2)c2c1CC(C(C)(C)O)O2 (stereo not shown) [TB4, 1-[2,3-dihydro-2-(1-hydroxy-1-methylethyl)-4-methoxy-benzofuran-7-yl]-3-(4-hydroxyphenyl)-2-propen-1-one] |  |  | 30 to 60 | 30 to 60 |  |
| C/C(=C\Cc1c(O)ccc(C(=O)/C=C/c2ccc(O)cc2)c1O)CCC(O)C(C)(C)O (stereo not shown) [TB5, 1-[2,4-dihydroxy-3-(6,7-dihydroxy-3,7-dimethyl-2-octenyl)phenyl]-3-(4-hydroxyphenyl)-2-propen-1-one] |  |  | > 100 | > 100 |  |
| C=C(C)C(O)CC/C(C)=C/Cc1c(OC)ccc(C(=O)/C=C/c2ccc(O)cc2)c1O (stereo not shown) [Xanthoangelol G] |  |  | 30 to 60 | > 100 | activation at 30 µM (3T3-L1 cells; 3T3-L1, 30 μM, X=(S−N)/(P−N) of amount of triglyceride, P=insulin positive control, read-out: Action for Induction of Differentiation): > 100% |
| COc1c2occc2cc2ccc(=O)oc12 [Xanthotoxin] |  |  |  |  | activation at 13 µM (3T3-L1 cells; [4]): 30 to 60%; activation at 40 µM (3T3-L1 cells; [4]): 60 to 100% |

From patent publication US20070092551A1, “Therapeutic agent” (TAKARA BIO INC., priority 2003, published 2007)
